Measurements published in patent US12517131B2, “Methods for labeling eukaryotic cells from a multicellular organism as well as for treating and/or diagnosing a cancer using modified monosaccharide compounds” (DIAMIDEX, priority 2019, dated 2026).

Columns and labels:
[1] = tested on: Macrophage (primary cells); assay: In vitro cytotoxicity of Ara-N3 probe (Annexin V/IP, MTS); assay type: cell-based, human; conditions: tested 1, 10, 50 and 100 mM, 24 h and 48 h
Procedure: (§1) The cell lines (as detailed below in the table) were provided by Inserm/Aquiderm transfer cell. Cell culture of cell lines and cell cytoxicity tests were also carried out by Aquiderm transfer cell, in the laboratory of INSERM U1035.
Human mononucleated cells were isolated from peripheral blood from 2 different healthy donors by convention established with the Etablissement Frangais du Sang d'Aquitaine. The technique used was Ficoll gradient isolation. Briefly, the blood diluted in a phosphate buffered saline solution (PBS) was deposited on a sucrose solution (Ficoll, Eurobio) and centrifuged in order to separate the different blood elements. Between Ficoll and plasma was established a cell ring composed of monocytes and lymphocytes. This was recovered and washed in PBS for counting on the Malassez cell.
Human CD14+monocytes were isolated from […] by magnetic beads coupled to an anti-CD14 antibody (Miltenyi Biotech). The mononuclear cells were incubated for 15 minutes, in PBS buffer, in the presence of a determined concentration of beads depending on the number of cells. […]
Briefly, after incubation of the cells with the Ara-N3 probe at different concentrations and at different times (24 h and 48 h), the cells were recovered, trypsinized (for adherent cells) and washed in PBS. […] They were then directly analyzed by cytometry after adding 100 μL of labeling buffer. […]

[2] = In vivo non-toxicity of Ara-N3 in nude mice; set-up: species or system NMRI nude mice
Procedure: Ten Female NMRI nude mice (6 weeks old, Janvier, Le Genest-Saint Isle, France) were enrolled in this assay. Three were injected intravenously every other day for 8 days (4 injections) with 50 mg/mouse/injection of Ara-N3 for 200 mg cumulative dose, and three other mice were treated for 8 days with 50 mg of Ara-N3 in 8 mL of water consumed per day, for 400 mg cumulative dose. As control groups, four tumor-bearing mice were not treated.
Mice were euthanized and dissected at the end of treatment. Heart, lung, brain, uterus, ovaries, kidney, skeletal muscle, spleen, pancreas, abdominal fat, liver, skin, stomach, colon, caecum, small intestine, mesenteric lymph nodes, axillary lymph nodes, brachial lymph nodes and total blood were harvested and frozen for analyses.

[3] = tested on: MDA MB175 (tumoral cell lines); assay: In vitro cytotoxicity of Ara-N3 probe (Annexin V/IP, MTS); assay type: cell-based
Procedure: as §1
(§2) All the cells were seeded in culture plates, either in 96 wells at the density of 1*10^4 cells/well for the MTS proliferation test, either in 24 wells at the density of 5*10^4 cells/well for the Annexin V test/IP test. Then the cells were incubated at 37° C. and 5% CO2 for 24 hours. After 24 hours, the culture medium was changed in all the wells and the cells adhered to the bottom of the wells were rinsed twice in PBS (Eurobio) or centrifuged and washed twice in PBS for the cells in suspension, before being exposed to the Ara-N3 probe at different concentrations: 1, 10, 50 and 100 mM. The cells were incubated at 37° C. and 5% CO2 for 48 hours.
(§3) This test requires the use of an Annexin V-APC kit (Biolegend) for the detection of apoptosis/necrosis. This test uses the ability of Annexin V to bind to membrane phosphatidylserines (PS) and the intercalating properties of propidium iodide (PI) on DNA.
(§4) Briefly, after incubation of the cells with the Ara-N3 probe at different concentrations and at different times (24 h and 48 h), the cells were recovered, trypsinized (for adherent cells) and washed in PBS. After counting in trypan blue on the Malassez cell, the cells were incubated in a labeling buffer (100 μL) in the presence of Annexin V-APC (5 μL) and of IP (10 μL) for 15 minutes at room temperature and in the dark. They were then directly analyzed by cytometry after adding 100 μL of labeling buffer.
(§5) The non-toxic concentrations of Ara-N3 with respect to the tested cells are gathered in the following Table 5.

[4] = tested on: MDA MB453 (tumoral cell lines); assay: as above; assay type: cell-based
Procedure: as §1, §2, §3, §4, §5

[5] = tested on: MDA MB231 (tumoral cell lines); assay: as above; assay type: cell-based
Procedure: as §1, §2, §3, §4, §5

[6] = tested on: HME1 (immortalized cell lines); assay: as above; assay type: cell-based
Procedure: as §1, §2, §3, §4, §5

[N-]=[N+]=NC[C@H]1OC(O)[C@@H](O)[C@@H]1O (stereo partly drawn) [Ara-N3, 5-azido-5-deoxy-D-arabinofuranose]
Non-toxic concentration of Ara-N3 [1]: >10 mM
water consumption of the mice ([2]; Ara-N3 in drinking water up to 6.25 mg/mL, 8 days): did not alter the water consumption
Non-toxic concentration of Ara-N3 ([2]; In vivo, Nude mouse (mice)): >1 mM
body weight loss ([2]; in drinking water, 50 mg in 8 mL per day for 8 days, 400 mg cumulative dose): did not induce any body weight loss
body weight loss ([2]; intravenous injections, 50 mg/mouse/injection every other day for 8 days, 200 mg cumulative dose): did not induce any body weight loss
Non-toxic concentration of Ara-N3 [3]: >1 mM
Non-toxic concentration of Ara-N3 [4]: >1 mM
Non-toxic concentration of Ara-N3 [5]: >1 mM
Non-toxic concentration of Ara-N3 [6]: >1 mM
